Experimental data: patent US10750743B2, “Pyridazinone herbicides” (E.I. DU PONT DE NEMOURS AND COMPANY, priority 2015, dated 2020)

Assays:
Type in all cases: in vivo
[1] = system: barnyardgrass (Echinochloa crus-galli); assay: Test A preemergence, directed soil spray, visual injury rating; details: 0 is no effect, 100 is complete control
Summary of the method: (§1)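 Seeds sown in a loam soil–sand blend received a directed preemergence soil spray of test chemical in a non-phytotoxic solvent mixture with surfactant. Postemergence plants were sprayed at 2 to 10 cm, one- to two-leaf stage. After approximately 10 d in greenhouse, injury was visually rated 0 (no effect) to 100 (complete control) against untreated controls.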

[2] = system: foxtail, giant (giant foxtail, Setaria faberii); assay: as above; details: 0 is no effect, 100 is complete control
Summary of the method: as §1

kochia (Kochia scoparia) [3] = assay: as above; details: 0 is no effect, 100 is complete control
Summary of the method: as §1

[4] = system: pigweed (Amaranthus retroflexus); assay: as above; details: 0 is no effect, 100 is complete control
Summary of the method: as §1

[5] = system: ragweed (common ragweed, Ambrosia elatior); assay: as above; details: 0 is no effect, 100 is complete control
Summary of the method: as §1

[6] = system: ryegrass, It. (Italian ryegrass, Lolium multiflorum); assay: as above; details: 0 is no effect, 100 is complete control
Summary of the method: as §1

[7] = system: barnyardgrass (Echinochloa crus-galli); assay: Test B flooded paddy test, visual rating; details: Flood, 250 g ai/ha, applied to paddy water, rated after 13 to 15 d
Summary of the method: (§2)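 Plants at the 2-leaf stage were flooded to 3 cm above soil, and test compounds were applied directly into the paddy water, which was held at that depth throughout. After 13 to 15 d in a greenhouse, injury was rated visually against untreated controls on a 0–100 scale (0 no effect, 100 complete control).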

[8] = system: ducksalad (Heteranthera limosa); assay: Test B flooded paddy test, visual rating; details: Flood, 250 g ai/ha, applied to paddy water, rated after 13 to 15 d
Summary of the method: as §2

rice (Oryza sativa) = assay: Test B flooded paddy test, visual rating; details: Flood, 250 g ai/ha, applied to paddy water, rated after 13 to 15 d
Summary of the method: as §2

[9] = system: sedge, umbrella (small-flower umbrella sedge, Cyperus difformis); assay: Test B flooded paddy test, visual rating; details: Flood, 250 g ai/ha, applied to paddy water, rated after 13 to 15 d
Summary of the method: as §2

[10] = system: barnyardgrass (Echinochloa crus-galli); assay: Test A postemergence application, visual injury rating; details: 0 to 100 scale, 0 no effect, 100 complete control
Summary of the method: as §1

[11] = system: blackgrass (Alopecurus myosuroides); assay: as above; details: 0 to 100 scale, 0 no effect, 100 complete control
Summary of the method: as §1

corn (Zea mays) = assay: as above; details: 0 to 100 scale, 0 no effect, 100 complete control
Summary of the method: as §1

[12] = system: foxtail, giant (giant foxtail, Setaria faberii); assay: as above; details: 0 to 100 scale, 0 no effect, 100 complete control
Summary of the method: as §1

[13] = system: galium (catchweed bedstraw, Galium aparine); assay: as above; details: 0 to 100 scale, 0 no effect, 100 complete control
Summary of the method: as §1

kochia (Kochia scoparia) [14] = assay: as above; details: 0 to 100 scale, 0 no effect, 100 complete control
Summary of the method: as §1

[15] = system: pigweed (Amaranthus retroflexus); assay: as above; details: 0 to 100 scale, 0 no effect, 100 complete control
Summary of the method: as §1

[16] = system: ragweed (common ragweed, Ambrosia elatior); assay: as above; details: 0 to 100 scale, 0 no effect, 100 complete control
Summary of the method: as §1

[17] = system: ryegrass, It. (Italian ryegrass, Lolium multiflorum); assay: as above; details: 0 to 100 scale, 0 no effect, 100 complete control
Summary of the method: as §1

[18] = system: wheat (Triticum aestivum); assay: as above; details: 0 to 100 scale, 0 no effect, 100 complete control
Summary of the method: as §1

Compound | Plant response rating (0 to 100 scale), Barnyardgrass ([1]; 125 g ai/ha) | Plant response rating (0 to 100 scale), Foxtail, Giant ([2]; 125 g ai/ha) | Plant response rating (0 to 100 scale), Kochia (kochia (Kochia scoparia) [3]; 125 g ai/ha) | Plant response rating (0 to 100 scale), Pigweed ([4]; 125 g ai/ha) | Plant response rating (0 to 100 scale), Ragweed ([5]; 125 g ai/ha) | Plant response rating (0 to 100 scale), Ryegrass, It. ([6]; 125 g ai/ha) | Barnyardgrass plant response rating (0 to 100 scale, 0 is no effect, 100 is complete control) [7] | Ducksalad plant response rating (0 to 100 scale, 0 is no effect, 100 is complete control) [8] | Rice plant response rating (0 to 100 scale, 0 is no effect, 100 is complete control) (rice (Oryza sativa)) | Sedge, Umbrella plant response rating (0 to 100 scale, 0 is no effect, 100 is complete control) [9] | Barnyardgrass plant response rating ([10]; 125 g ai/ha) | Blackgrass plant response rating ([11]; 125 g ai/ha) | Corn plant response rating (corn (Zea mays); 125 g ai/ha) | Foxtail, Giant plant response rating ([12]; 125 g ai/ha) | Galium plant response rating ([13]; 125 g ai/ha) | Kochia plant response rating (kochia (Kochia scoparia) [14]; 125 g ai/ha) | Pigweed plant response rating ([15]; 125 g ai/ha) | Ragweed plant response rating ([16]; 125 g ai/ha) | Ryegrass, It. plant response rating ([17]; 125 g ai/ha) | Wheat plant response rating ([18]; 125 g ai/ha) | other results
CC(=O)Oc1c(C)nn(C)c(=O)c1-c1ccc(Cl)c2ccsc12 [Compound 51] | 20 | 0 | 20 | 60 | 0 | 100 | 0 | 0 | 0 | 0 | 10 | 10 | 0 | 0 | 100 | 90 | 60 | 50 | 100 | 0 | Plant response rating (0 to 100 scale), Barnyardgrass ([1]; 31 g ai/ha): 0; Plant response rating (0 to 100 scale), Foxtail, Giant ([2]; 31 g ai/ha): 0; Plant response rating (0 to 100 scale), Kochia (kochia (Kochia scoparia) [3]; 31 g ai/ha): 0; Plant response rating (0 to 100 scale), Pigweed ([4]; 31 g ai/ha): 0; Plant response rating (0 to 100 scale), Ragweed ([5]; 31 g ai/ha): 0; Plant response rating (0 to 100 scale), Ryegrass, It. ([6]; 31 g ai/ha): 60; Barnyardgrass plant response rating ([10]; 31 g ai/ha): 0; Blackgrass plant response rating ([11]; 31 g ai/ha): 0; Corn plant response rating (corn (Zea mays); 31 g ai/ha): 0; Foxtail, Giant plant response rating ([12]; 31 g ai/ha): 0; Galium plant response rating ([13]; 31 g ai/ha): 100; Kochia plant response rating (kochia (Kochia scoparia) [14]; 31 g ai/ha): 70; Pigweed plant response rating ([15]; 31 g ai/ha): 50; Ragweed plant response rating ([16]; 31 g ai/ha): 0; Ryegrass, It. plant response rating ([17]; 31 g ai/ha): 70; Wheat plant response rating ([18]; 31 g ai/ha): 0
CCC(=O)Oc1c(C)nn(C)c(=O)c1-c1ccc(Cl)c2oc(C)cc12 [Compound 52] | 0 | 0 | 0 | 70 | 0 | 50 | 0 | 0 | 0 | 0 | 0 | 0 | 0 | 0 | 90 | 0 | 60 | 20 | 40 | 0 | Plant response rating (0 to 100 scale), Barnyardgrass ([1]; 500 g ai/ha): 0; Plant response rating (0 to 100 scale), Foxtail, Giant ([2]; 500 g ai/ha): 0; Plant response rating (0 to 100 scale), Kochia (kochia (Kochia scoparia) [3]; 500 g ai/ha): 0; Plant response rating (0 to 100 scale), Pigweed ([4]; 500 g ai/ha): 100; Plant response rating (0 to 100 scale), Ragweed ([5]; 500 g ai/ha): 0; Plant response rating (0 to 100 scale), Ryegrass, It. ([6]; 500 g ai/ha): 70; Barnyardgrass plant response rating ([10]; 500 g ai/ha): 10; Blackgrass plant response rating ([11]; 500 g ai/ha): 10; Corn plant response rating (corn (Zea mays); 500 g ai/ha): 0; Foxtail, Giant plant response rating ([12]; 500 g ai/ha): 0; Galium plant response rating ([13]; 500 g ai/ha): 90; Kochia plant response rating (kochia (Kochia scoparia) [14]; 500 g ai/ha): 20; Pigweed plant response rating ([15]; 500 g ai/ha): 60; Ragweed plant response rating ([16]; 500 g ai/ha): 60; Ryegrass, It. plant response rating ([17]; 500 g ai/ha): 60; Wheat plant response rating ([18]; 500 g ai/ha): 0
